According to patent publication US7250409B2, “Ningalin B analogs employable for reversing multidrug resistance” (The Scripps Research Institute, priority 2000, dated 2007):
Entries after “also recorded” stand apart in the source; their conditions may differ.

Key:
[1] = tested on: HCT116; assay: Cytotoxic activity against wild-type HCT116; format: cell-based, human
Description: (§1) Cytotoxic Activity and Reversal of Multidrug Resistance. […] (Quesada, A. R.; et al. Br. J. Cancer 1996, 74, 677.) With exception of ningalin A, (Ningalin A, lamellarin O, lukianol A, and permethyl storniamide A: Boger, D. L.; et al. J. Am. Chem. Soc. 1999, 121, 54.) the biological evaluation of the ningalin family has not been explored. Consequently, ningalin B and a number of structurally related synthetic intermediates were tested in a L1210 cytotoxic assay, and the results are summarized in FIGS. 6 and 10. […] (Ningalin A, lamellarin O, lukianol A, and permethyl storniamide A: Boger, D. L.; et al. J. Am. Chem. Soc. 1999, 121, 54.)
(Quesada, A. R.; et al. Br. J. Cancer 1996, 74, 677.) P-gp is a 170 kDa plasma membrane glycoprotein encoded in humans by the MDR1 gene which exports drugs out of mammalian cells, lowering their intracellular concentration. (Patel, N. H.; et al. Invest. New Drugs 1994, 12, 1. Gottesman, M. M.; et al. Annu. Rev. Biochem. 1993, 62, 385.) Therefore, 7-14 were also tested against a wild-type human colon cancer cell line (HCT116) and two resistant HCT116 cell lines. The first resistant cell line (HCT116/VM46) embodies the MDR phenotype and overexpresses P-glycoprotein while the second cell line (HCT116/VP35) derives its resistance through underexpression of topoisomerase II. The examination of the latter cell line along with the wild-type HCT116 and their comparison with HCT116VM46 allows an accurate assessment of the MDR sensitivity as well as an assessment of one potential therapeutic target.

[2] = tested on: HCT116/VM46; assay: Reversal of multidrug resistance: resensitizing HCT116/VM46 to vinblastine and doxorubicin; format: cell-based, human; conditions: for resensitization of HCT116/VM46 compared with verapamil: vinblastine and doxorubicin
[3] = tested on: L1210; assay: L1210 cytotoxic assay; format: cell-based
Excerpt: FIG. 6 illustrates a table with a comparison of the cytotoxic activity of ningalin B and some analogs with some commonly used compounds against three different cell lines.
as §1

[4] = molecular target: T1, Pgp-170 (Homo sapiens, UniProt P08183); assay: Inhibition of dye efflux (rhodamine 123) from HCT116/VM46; format: cell-based; conditions: 30 min incubation in rhodamine 123 in phosphate buffer solution
T1 construct: The first resistant cell line (HCT116/VM46) embodies the MDR phenotype and overexpresses P-glycoprotein; endogenous in cells; host or cells: HCT116/VM46 (drug-resistant human colon cancer cell line)
Description: FIG. 8 illustrates the inhibition of dye efflux (rhodamine 123) from the HCT116/VM46 cell line. Accumulation of rhodamine 123 in the HCT116/VM46 cell line after 30 min incubation in […] rhodamine in phosphate buffer solution (Quesada, A. R.; et al., Br. J. Cancer 1996, 74, 677).
Fundamentally more important, many of the agents were found capable of reversing MDR at noncytotoxic concentrations, resensitizing HCT116/VM46 to vinblastine and doxorubicin (FIGS. 7 and 11).

[5] = cytotoxic activity relative to ningalin B

T1 sequence (P08183 whole entry): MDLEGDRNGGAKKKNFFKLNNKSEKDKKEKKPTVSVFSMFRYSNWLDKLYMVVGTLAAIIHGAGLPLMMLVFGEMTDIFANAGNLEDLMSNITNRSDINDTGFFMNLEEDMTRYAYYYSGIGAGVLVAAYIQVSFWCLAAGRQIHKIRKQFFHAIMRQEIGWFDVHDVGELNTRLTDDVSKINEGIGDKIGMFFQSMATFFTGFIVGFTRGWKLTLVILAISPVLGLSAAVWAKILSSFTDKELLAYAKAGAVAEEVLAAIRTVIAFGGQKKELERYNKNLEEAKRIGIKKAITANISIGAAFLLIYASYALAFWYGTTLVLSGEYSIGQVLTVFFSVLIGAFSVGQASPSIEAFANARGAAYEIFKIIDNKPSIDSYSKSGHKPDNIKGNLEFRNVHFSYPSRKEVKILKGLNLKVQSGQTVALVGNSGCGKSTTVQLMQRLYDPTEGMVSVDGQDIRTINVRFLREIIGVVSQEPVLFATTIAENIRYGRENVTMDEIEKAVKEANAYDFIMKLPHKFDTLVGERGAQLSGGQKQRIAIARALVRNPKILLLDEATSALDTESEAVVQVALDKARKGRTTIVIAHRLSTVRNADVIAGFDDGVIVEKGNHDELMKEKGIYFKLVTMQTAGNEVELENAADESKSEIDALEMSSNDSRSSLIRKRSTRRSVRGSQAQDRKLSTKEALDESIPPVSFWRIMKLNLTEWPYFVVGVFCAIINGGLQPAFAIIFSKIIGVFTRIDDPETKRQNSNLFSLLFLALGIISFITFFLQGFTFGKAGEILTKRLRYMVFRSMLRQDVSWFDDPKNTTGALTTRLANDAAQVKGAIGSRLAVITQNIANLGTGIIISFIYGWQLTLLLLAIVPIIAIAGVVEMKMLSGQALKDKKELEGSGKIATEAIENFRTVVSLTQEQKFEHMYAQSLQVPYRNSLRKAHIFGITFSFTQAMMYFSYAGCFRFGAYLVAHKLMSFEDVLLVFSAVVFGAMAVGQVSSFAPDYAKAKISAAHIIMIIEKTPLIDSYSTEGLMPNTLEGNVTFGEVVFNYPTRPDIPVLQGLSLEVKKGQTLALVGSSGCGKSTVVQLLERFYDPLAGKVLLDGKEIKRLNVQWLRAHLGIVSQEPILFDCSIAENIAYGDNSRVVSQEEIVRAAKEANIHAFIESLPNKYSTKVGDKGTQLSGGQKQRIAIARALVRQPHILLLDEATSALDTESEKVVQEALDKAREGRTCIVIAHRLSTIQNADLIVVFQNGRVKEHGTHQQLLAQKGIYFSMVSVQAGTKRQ

SMILES	inherent cytotoxic activity (cell line not given) [1]	ability to resensitize HCT116/VM46 to vinblastine and doxorubicin ([2]; agent at 1 μM)	resensitization of HCT116/VM46 compared with verapamil ([2]; agent at 1 μM)	MDR reversal in HCT116/VM46 ([2]; agent at 7.5 μM)	MDR reversal, resensitizing HCT116/VM46 to vinblastine and doxorubicin ([2]; concentration not given)	MDR reversal in HCT116/VM46 ([2]; agent at 1 μM)	fold less active against L1210 than ningalin B [3, 5]	fold less active against HCT116 than ningalin B [1, 5]	sensitivity of HCT116/VM46 towards vinblastine in presence of agent ([2]; concentration not given, vinblastine)	dye efflux (rhodamine 123) from HCT116/VM46 [4]	cytotoxic activity against L1210 ([3]; L1210 cell line)	cytotoxic activity against HCT116 ([1]; wild-type human colon cancer cell line HCT116)
COCOc1cc(OC)c(OC)cc1-c1c(-c2ccc(OC)c(OC)c2)c(C(=O)OC)n(CCc2ccc(OC)c(OC)c2)c1C(=O)OC [compound 10, Dimethyl 3-(4,5-Dimethoxy-2-(methoxymethoxy)phenyl)-4-(3,4-dimethoxyphenyl)-1-[2-(3,4-dimethoxyphenyl)ethyl]pyrrole-2,5-dicarboxylate]	lacking inherent cytotoxic activity	able to resensitize	more effectively than verapamil	complete MDR reversal	potently reverse MDR	–	–	–	–	–	–	–
COC(=O)c1c(-c2ccc(OC)c(OC)c2)c2c3cc(OC)c(OC)cc3oc(=O)c2n1CCc1ccc(OC)c(OC)c1 [compound 11, Methyl 7,8-Dimethoxy-3-(2-(3,4-dimethoxyphenyl)ethyl)-1-(3,4-dimethoxyphenyl)-[1]-benzopyrano[3,4-b]pyrrol-4(3B)-one-2-carboxylate]	–	able to resensitize	more effectively than verapamil	hypersensitive to vinblastine	potently reverse MDR	complete MDR reversal	–	–	–	–	–	–
COc1ccc(CCn2cc(-c3ccc(OC)c(OC)c3)c3c4cc(OC)c(OC)cc4oc(=O)c32)cc1OC [compound 13, Hexamethyl Ningalin B]	–	able to resensitize	more effectively than verapamil	hypersensitive to vinblastine	potently reverse MDR	complete MDR reversal	5 fold	2.5 fold	–	–	–	–
COc1ccc(-c2c3n(c4c(=O)oc5cc(OC)c(OC)cc5c24)CCc2cc(OC)c(OC)cc2C3=O)cc1OC [compound 14, 9,10-Dihydro-12,13-dimethoxy-1-(3′,4′-dimethoxyphenyl)-3,4-dimethoxy-[4,3-d]-[1]-benzopyrano-15H-benzazepino[3,2-a]-[3]-pyrrol-7,15(18H)-dione]	lacking inherent cytotoxic activity	able to resensitize	more effectively than verapamil	–	potently reverse MDR; also recorded: most potent MDR reversal agent identified in this series	hypersensitivity of HCT116/VM46 to vinblastine	–	–	hypersensitivity towards vinblastine	inhibited dye efflux	–	–
COc1ccc(CCn2c(C(=O)N(C)C)c(-c3ccc(OC)c(OC)c3)c3c4cc(OC)c(OC)cc4oc(=O)c32)cc1OC [compound 15, N,N-Dimethyl 7,8-Dimethoxy-3-(2-(3,4-dimethoxyphenyl)ethyl)-1-(3,4-dimethoxyphenyl)-[1]-benzopyrano[3,4-b]pyrrol-4(3H)-one-2-carboxamide]	lacking inherent cytotoxic activity	–	–	–	potently reverse MDR	–	–	–	–	–	–	–
O=c1oc2cc(O)c(O)cc2c2c(-c3ccc(O)c(O)c3)cn(CCc3ccc(O)c(O)c3)c12 [ningalin B, Ningalin B]	–	–	–	–	not	–	–	–	–	–	only moderately active	only moderately active
COc1ccc(CCN(C)CCCC(C#N)(c2ccc(OC)c(OC)c2)C(C)C)cc1OC (stereo not drawn) [verapamil, reference compound]	–	–	–	complete reversal	–	–	–	–	–	–	–	–
